In brackets after ≈: the same amount, converted by molar mass. Like-named read-outs stand apart in the source and are kept apart here.
Tests used:
[1] = Solubility of prodrug in isopropyl myristate (IPM); conditions: for solubility: isopropyl myristate, organic solvent or mixture; for CIPM, equivalent mg of 5FU/ml: IPM, 23 ± 1° C., value in parentheses
Experimental: The results from the determination of the physicochemical properties are recorded in the tables as CIPM (the saturated solubility of the prodrug in the isopropyl myristate (IPM) vehicle/formulation in which the prodrug was applied to the mouse skins), K (the partition coefficients of the prodrug between IPM and a pH 4.0 acetate buffer) and Cw (the solubility of the prodrug in pH 4.0 acetate buffer calculated from the partition coefficient and the IPM solubility).

[2] = Partition coefficient between IPM and pH 4.0 acetate buffer; format: physicochemical; conditions: 23 ± 1° C.
Excerpt: ^a Partition coefficient between IPM and pH 4.0 acetate buffer at 23

[3] = Diffusion cell experiments: delivery of 5-FU through hairless mouse skin; format: in vitro ADME; conditions: for Ji, flux of 5-FU through the skin: from suspensions of prodrugs in IPM, hairless mouse skin; for Cs, amount of 5-FU in the skin: leached from hairless mouse skin in 24 hours subsequent to application of prodrug in vehicle for 48 hours; for Jj, flux of theophylline through the skin after application of the prodrug/formulation (relative damage): theophylline from suspension in PG
Experimental: The diffusion cell experiments were conducted as described by Sloan et al in J. Invest.
^b Flux in mg/cm^2 hour of 5FU from suspensions of prodrugs in
^c Amount of 5FU in mg leached from hairless mouse skin in 24 hours
subsequent to application of prodrug in vehicle for 48 hours.
^d Flux in mg/cm^2 hour of theophylline from suspension in PG.

[4] = shake-flask, brief shaking, IPM phase analyzed immediately; conditions: 23 ± 1 °C
[5] = not told; conditions: 22 °C; cited from earlier work
[6] = 37° C., 0.05 M phosphate buffer pH 7.4, cited from earlier work
[7] = 22° C., cited from earlier work
[8] = 22° C.; Buur et al (1986); compound 11 from Buur et al (1987); cited from earlier work
[9] = 37° C., 80% human plasma; Buur et al (1984); cited from earlier work

| Compound | solubility [1] [µg/mL] | K, partition coefficient between IPM and pH 4.0 acetate buffer [2] | Ji, flux of 5-FU through the skin [3] [mg/cm^2 hour] | Cs, amount of 5-FU in the skin [3] [mg] | Jj, flux of theophylline through the skin after application of the prodrug/formulation (relative damage) [3] [mg/cm^2 hour] | log partition isopropyl myristate / pH 4.0 acetate buffer [4] [concentration ratio] | CIPM, equivalent mg of 5FU/ml [1] | log partition octanol / pH 4.0 acetate buffer [5] [log10 concentration ratio] | Half-life, Buffer ([6]; Buur et al (1986), compound 11 from Buur et al (1987)) [min] | log K, octanol/pH 4.0 acetate buffer ([7]; J. Pharm. Sci. 75, 522, Buur et al (1986), compound 11 from Int. J. Pharm. 36, 41 (1987)) | Cw, solubility at pH 4.0 acetate buffer [8] [mg/ml] | Half-life, Buffer ([6]; Buur et al (1984)) [min] | Half-life, 80% Plasma [9] [min] | log K, octanol/pH 4.0 acetate buffer ([7]; Int. J. Pharm. 21, 349, Buur et al (1984)) |
| --- | --- | --- | --- | --- | --- | --- | --- | --- | --- | --- | --- | --- | --- | --- |
| CC(=O)n1cc(F)c(=O)[nH]c1=O [Compound 1] | 3800 (≈ 22.1 mM) | 0.185 | 1.213 | 8.85 | 0.296 | 0.185 |  |  |  |  |  |  |  |  |
| CCC(=O)n1cc(F)c(=O)[nH]c1=O [Compound 2] | 6770 (≈ 36.4 mM) | 0.764 | 0.560 | 8.96 | 0.219 | 0.764 |  |  |  |  |  |  |  |  |
| CCCC(=O)n1cc(F)c(=O)[nH]c1=O [Compound 3] | 3480 (≈ 17.4 mM) | 2.69 | 0.168 | 1.07 | 0.185 | 2.69 |  |  |  |  |  |  |  |  |
| CCCCC(=O)n1cc(F)c(=O)[nH]c1=O [Compound 4] | 8390 (≈ 39.2 mM) | 11.3 | 0.133 | 2.08 | 0.144 | 11.3 |  |  |  |  |  |  |  |  |
| CCCCCC(=O)n1cc(F)c(=O)[nH]c1=O [Compound 5] | 25700 (≈ 113 mM) | 42.9 |  | 1.42 |  | 42.9 |  |  |  |  |  |  |  |  |
| CCCCCCCC(=O)n1cc(F)c(=O)[nH]c1=O [Compound 6] | 28400 (≈ 111 mM) |  | 0.078 | 1.58 | 0.129 |  | 14.4 equivalent mg of 5FU/ml |  |  |  |  |  |  |  |
| COC(=O)n1cc(F)c(=O)[nH]c1=O [Compound 7] | 400 (≈ 2.13 mM) | 0.026 | 0.343 | 1.08 | 0.337 | 0.026 |  | -0.68 | 190 | -0.68 | 23.3 |  |  |  |
| CCCOC(=O)n1cc(F)c(=O)[nH]c1=O [Compound 9] | 3280 (≈ 15.2 mM) | 0.359 | 0.294 | 0.65 | 0.300 | 0.359 |  |  |  |  |  |  |  |  |
| CCCCCCCCOC(=O)n1cc(F)c(=O)[nH]c1=O [Compound 12] | 10400 (≈ 36.3 mM) |  | 0.037 | 0.41 | 0.323 |  | 4.72 equivalent mg of 5FU/ml |  |  |  |  |  |  |  |
| CCCC(=O)n1c(=O)[nH]cc(F)c1=O [Compound 15] | 4440 (≈ 22.2 mM) | 0.97 |  |  | 0.204 | 0.97 | 2.89 equivalent mg of 5FU/ml | 0.67 |  |  |  | 58 | 28 | 0.67 |
| CCCCC(=O)n1c(=O)[nH]cc(F)c1=O [Compound 16] |  | 1.65 | 0.071 | 0.38 |  | 1.65 |  |  |  |  |  |  |  |  |
| CC(=O)n1cc(F)c(=O)n(C(C)=O)c1=O [Compound 17] | 5600 (≈ 26.1 mM) | 2.93 | 0.291 | 1.24 | 0.282 | 2.93 |  |  |  |  |  |  |  |  |
| CCC(=O)n1cc(F)c(=O)n(C(=O)CC)c1=O [Compound 18] | 17400 (≈ 71.8 mM) | 33.8 | 0.090 | 0.51 | 0.288 | 33.8 |  |  |  |  |  |  |  |  |
| CCCC(=O)n1cc(F)c(=O)n(C(=O)CCC)c1=O [Compound 19] | 169000 (≈ 625 mM) |  | 0.127 | 1.54 | 0.190 |  | 81.4 equivalent mg of 5FU/ml |  |  |  |  |  |  |  |
| CCCCC(=O)n1cc(F)c(=O)n(C(=O)CCCC)c1=O [Compound 20] | 352000 (≈ 1180 mM) |  | 0.124 | 1.14 | 0.156 |  | 154 equivalent mg of 5FU/ml |  |  |  |  |  |  |  |
